Laboratory results from PubChem BioAssay (NCI).
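Step 1: Grow cells in 96-well plates. Step 2: Expose to compound for 48 hours at 5 concentrations. Step 3: Interpolate endpoints linearly; if unreached, use highest concentration. The concentration for full growth arrest is given as TGI.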 *1 amine or outer side, *2 acyl side, *3 side chain or, on linkers, in order; H or OH if unused. Where a SMILES comes first, the peptide text is derived from it. [ ]: non-standard residue; d: D form. The star is where a group is joined. X41 = CCC(=O)CC1CC(C)CC(C(=O)[*:2])N1[*:1]; X40 = CCCCCCCCC(C)C(=O)*; Aib = CC(C)(N)C(=O)O; X42 = CC(CN(C)CCO)N*

Columns and labels:
Experiment in all cases: DTP human tumour cell line panel, 48 h
A549 NSCLC = system: A549 NSCLC
ACHN renal = system: ACHN renal
COLO 205 colon = system: COLO 205 colon
EKVX NSCLC = system: EKVX NSCLC
HCT-15 colon = system: HCT-15 colon
HOP-62 NSCLC = system: HOP-62 NSCLC
HOP-92 NSCLC = system: HOP-92 NSCLC
HS 578T breast = system: HS 578T breast
HT29 colon = system: HT29 colon
IGROV1 ovarian = system: IGROV1 ovarian
LOX IMVI melanoma = system: LOX IMVI melanoma
M14 melanoma = system: M14 melanoma
MALME-3M melanoma = system: MALME-3M melanoma
MDA-MB-231 breast = system: MDA-MB-231 breast
MOLT-4 leukemia = system: MOLT-4 leukemia
NCI-H460 lung = system: NCI-H460 lung
NCI-H522 lung = system: NCI-H522 lung
NCI/ADR-RES ovarian = system: NCI/ADR-RES ovarian
OVCAR-3 ovarian = system: OVCAR-3 ovarian
OVCAR-4 ovarian = system: OVCAR-4 ovarian
OVCAR-8 ovarian = system: OVCAR-8 ovarian
PC-3 prostate = system: PC-3 prostate
SF-268 CNS = system: SF-268 CNS
SF-295 CNS = system: SF-295 CNS
SK-MEL-2 melanoma = system: SK-MEL-2 melanoma
SK-MEL-5 melanoma = system: SK-MEL-5 melanoma
SK-OV-3 ovarian = system: SK-OV-3 ovarian
SN12C renal = system: SN12C renal
SNB-75 CNS = system: SNB-75 CNS
SR leukemia = system: SR leukemia
SW-620 colon = system: SW-620 colon
T-47D breast = system: T-47D breast
UACC-257 melanoma = system: UACC-257 melanoma
UACC-62 melanoma = system: UACC-62 melanoma
786-0 renal = system: 786-0 renal
A498 renal = system: A498 renal
BT-549 breast = system: BT-549 breast
CAKI-1 renal = system: CAKI-1 renal
CCRF-CEM leukemia = system: CCRF-CEM leukemia
HCC-2998 colon = system: HCC-2998 colon
HCT-116 colon = system: HCT-116 colon
HL-60(TB) leukemia = system: HL-60(TB) leukemia
K-562 leukemia = system: K-562 leukemia
KM12 colon = system: KM12 colon
MCF7 breast = system: MCF7 breast
MDA-MB-435 = system: MDA-MB-435
NCI-H226 lung = system: NCI-H226 lung
NCI-H23 lung = system: NCI-H23 lung
OVCAR-5 ovarian = system: OVCAR-5 ovarian
RPMI-8226 leukemia = system: RPMI-8226 leukemia
SF-539 CNS = system: SF-539 CNS
SK-MEL-28 melanoma = system: SK-MEL-28 melanoma
SNB-19 CNS = system: SNB-19 CNS
TK-10 renal = system: TK-10 renal
U251 CNS = system: U251 CNS
UO-31 renal = system: UO-31 renal
DU-145 prostate = system: DU-145 prostate

c1ccc2c3nnc(c2c1)SCCSCCSc1nnc(c2ccccc12)SCCSCCS3
TGI (A549 NSCLC): > 100 µM
TGI (ACHN renal): > 100 µM
TGI (COLO 205 colon): > 100 µM
TGI (EKVX NSCLC): > 100 µM
TGI (HCT-15 colon): > 100 µM
TGI (HOP-62 NSCLC): > 100 µM
TGI (HOP-92 NSCLC): > 100 µM
TGI (HS 578T breast): > 100 µM
TGI (HT29 colon): > 100 µM
TGI (IGROV1 ovarian): > 100 µM
TGI (LOX IMVI melanoma): > 100 µM
TGI (M14 melanoma): > 100 µM
TGI (MALME-3M melanoma): > 100 µM
TGI (MDA-MB-231 breast): > 100 µM
TGI (MOLT-4 leukemia): > 100 µM
TGI (NCI-H460 lung): > 100 µM
TGI (NCI-H522 lung): > 100 µM
TGI (NCI/ADR-RES ovarian): > 100 µM
TGI (OVCAR-3 ovarian): > 100 µM
TGI (OVCAR-4 ovarian): > 100 µM
TGI (OVCAR-8 ovarian): > 100 µM
TGI (PC-3 prostate): > 100 µM
TGI (SF-268 CNS): > 100 µM
TGI (SF-295 CNS): > 100 µM
TGI (SK-MEL-2 melanoma): > 100 µM
TGI (SK-MEL-5 melanoma): > 100 µM
TGI (SK-OV-3 ovarian): > 100 µM
TGI (SN12C renal): > 100 µM
TGI (SNB-75 CNS): > 100 µM
TGI (SR leukemia): > 100 µM
TGI (SW-620 colon): > 100 µM
TGI (T-47D breast): > 100 µM
TGI (UACC-257 melanoma): > 100 µM
TGI (UACC-62 melanoma): > 100 µM

COc1cc2c(c(OC)c1OC)C(=O)CC2N (stereo unspecified)
TGI (786-0 renal): > 100 µM
TGI (A498 renal): > 100 µM
TGI (A549 NSCLC): > 100 µM
TGI (ACHN renal): > 100 µM
TGI (BT-549 breast): > 100 µM
TGI (CAKI-1 renal): > 100 µM
TGI (CCRF-CEM leukemia): > 100 µM
TGI (COLO 205 colon): > 100 µM
TGI (EKVX NSCLC): > 100 µM
TGI (HCC-2998 colon): > 100 µM
TGI (HCT-116 colon): > 100 µM
TGI (HCT-15 colon): > 100 µM
TGI (HL-60(TB) leukemia): > 100 µM
TGI (HOP-92 NSCLC): > 100 µM
TGI (HS 578T breast): > 100 µM
TGI (HT29 colon): > 100 µM
TGI (IGROV1 ovarian): > 100 µM
TGI (K-562 leukemia): > 100 µM
TGI (KM12 colon): > 100 µM
TGI (LOX IMVI melanoma): > 100 µM
TGI (M14 melanoma): > 100 µM
TGI (MALME-3M melanoma): > 100 µM
TGI (MCF7 breast): > 100 µM
TGI (MDA-MB-231 breast): > 100 µM
TGI (MDA-MB-435): > 100 µM
TGI (MOLT-4 leukemia): > 100 µM
TGI (NCI-H226 lung): > 100 µM
TGI (NCI-H23 lung): > 100 µM
TGI (NCI-H460 lung): > 100 µM
TGI (NCI-H522 lung): > 100 µM
TGI (NCI/ADR-RES ovarian): > 100 µM
TGI (OVCAR-3 ovarian): > 100 µM
TGI (OVCAR-4 ovarian): > 100 µM
TGI (OVCAR-5 ovarian): > 100 µM
TGI (OVCAR-8 ovarian): > 100 µM
TGI (PC-3 prostate): > 100 µM
TGI (RPMI-8226 leukemia): > 100 µM
TGI (SF-268 CNS): > 100 µM
TGI (SF-295 CNS): > 100 µM
TGI (SF-539 CNS): > 100 µM
TGI (SK-MEL-2 melanoma): > 100 µM
TGI (SK-MEL-28 melanoma): > 100 µM
TGI (SK-MEL-5 melanoma): > 100 µM
TGI (SK-OV-3 ovarian): > 100 µM
TGI (SNB-19 CNS): > 100 µM
TGI (SNB-75 CNS): > 100 µM
TGI (SW-620 colon): > 100 µM
TGI (TK-10 renal): > 100 µM
TGI (U251 CNS): > 100 µM
TGI (UACC-257 melanoma): > 100 µM
TGI (UACC-62 melanoma): > 100 µM
TGI (UO-31 renal): > 100 µM

Cc1ccc2c(O)c3c(cc2c1)C(=O)c1c2c(cc(O)c1C3=O)C1(C)OC(O2)C(O)C(N(C)C)C1O (stereo unspecified)
TGI (786-0 renal): 1.6 µM
TGI (A498 renal): 2.37 µM
TGI (ACHN renal): 1.88 µM
TGI (COLO 205 colon): 1.91 µM
TGI (DU-145 prostate): 2.23 µM
TGI (HCC-2998 colon): 2.34 µM
TGI (HCT-15 colon): 2.44 µM
TGI (HOP-92 NSCLC): 2.22 µM
TGI (K-562 leukemia): 0.442 µM
TGI (KM12 colon): 2.77 µM
TGI (NCI/ADR-RES ovarian): 2.42 µM
TGI (OVCAR-3 ovarian): 1.59 µM
TGI (OVCAR-5 ovarian): 3.73 µM
TGI (SF-268 CNS): 81 µM
TGI (TK-10 renal): 3.1 µM

CCCCCCCCC(C)C(=O)N1CCCC1C(=O)N1C(CC(=O)CC)CC(C)CC1C(=O)NC(C)C(=O)NC(C)(C)C(=O)NC(C)(C)C(=O)NC(C(=O)NC(C)C(=O)NC(C)(C)C(=O)NC(C)(C)C(=O)NC(C)CN(C)CCO)C(C)CC (stereo unspecified) (X40-P[X41]A[Aib][Aib]IA[Aib][Aib]-X42; configuration not given here)
TGI (BT-549 breast): 6.63 µM
TGI (HOP-92 NSCLC): 0.0435 µM
TGI (NCI-H226 lung): 1.22 µM
TGI (NCI-H23 lung): 1.05 µM
TGI (UACC-257 melanoma): 2.5 µM
